Experimental data reported in PubChem BioAssay (NCI).
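Each compound was tested at five concentrations against cells in 96-well plates for 48 hours. GI50 is the concentration that inhibits growth by half. At the TGI there is no net growth.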

How the values were obtained:
Experiment in all cases: growth of human tumour cells (NCI), 48 h
SF-295 CNS = test system: SF-295 CNS
HOP-62 NSCLC = test system: HOP-62 NSCLC
SW-620 colon = test system: SW-620 colon
NCI-H23 lung = test system: NCI-H23 lung
OVCAR-5 ovarian = test system: OVCAR-5 ovarian
HCC-2998 colon = test system: HCC-2998 colon
U251 CNS = test system: U251 CNS
SK-OV-3 ovarian = test system: SK-OV-3 ovarian
UO-31 renal = test system: UO-31 renal
NCI/ADR-RES ovarian = test system: NCI/ADR-RES ovarian

| SMILES | GI50 (SF-295 CNS) [µM] | TGI (SF-295 CNS) [µM] | GI50 (HOP-62 NSCLC) [µM] | TGI (HOP-62 NSCLC) [µM] | GI50 (SW-620 colon) [µM] | TGI (SW-620 colon) [µM] | GI50 (NCI-H23 lung) [µM] | GI50 (OVCAR-5 ovarian) [µM] | TGI (OVCAR-5 ovarian) [µM] | GI50 (HCC-2998 colon) [µM] | TGI (HCC-2998 colon) [µM] | GI50 (U251 CNS) [µM] | TGI (U251 CNS) [µM] | GI50 (SK-OV-3 ovarian) [µM] | TGI (SK-OV-3 ovarian) [µM] | GI50 (UO-31 renal) [µM] | TGI (UO-31 renal) [µM] | GI50 (NCI/ADR-RES ovarian) [µM] | TGI (NCI/ADR-RES ovarian) [µM] | TGI (NCI-H23 lung) [µM] |
| --- | --- | --- | --- | --- | --- | --- | --- | --- | --- | --- | --- | --- | --- | --- | --- | --- | --- | --- | --- | --- |
| COc1cccc(-c2nc(-c3ccc(NC(=O)C(C)C)cc3)[nH]c2-c2ccnc(Br)c2)c1 | 0.273 | 0.759 | 3.44 | > 100 | 3.52 | > 100 | 2.88 | 4.69 | > 100 | 2.03 | 6.01 | 2.08 | > 100 | 3.66 | > 100 | 3.2 | > 100 | 3.03 | > 100 | – |
| N=Nc1c(OC(=O)Nc2cccc(Cl)c2)[nH]c2ccccc12 | – | 5.99 | – | 13.1 | – | 24.6 | – | – | 31.2 | – | 17.5 | – | 18.9 | – | 21.2 | – | 13.1 | – | 21.4 | 12.1 |
